Read-outs that look alike come from different tables or passages of the source.
Legend:
[1] = target: Pim1 kinase (Homo sapiens, UniProt P11309); experiment: Pim1 ATP depletion assay; format: biochemical; conditions: Pim1 ATP depletion assay;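 further: Luciferase-luciferin luminescence readout of residual ATP after PIM1 transfers phosphate to a peptide substrate, 40 µM ATP added, reaction run to roughly half ATP consumption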
[2] = test system: HEL 92.1.7 cells; experiment: Cell proliferation assay (CellTiter-Glo), HEL 92.1.7; format: cell-based; conditions: Homo sapiens
Description: HEL 92.1.7 cells (ATTC No. TIB-180, an erythroleukemia line derived from malignant peripheral blood), MV4-11 cells (ATCC No. CRL-9591, a human acute monocytic leukemia line) and PC3 cells (ATCC No. CRL-1435, a human prostatic adenocarcinoma line) were cultured in RPMI1640 supplemented with 10% FBS, sodium pyruvate and antibiotics. Cells were plated in the same medium at a density of 1000 cells per well into 96 well tissue culture plates, with outside wells vacant, on the day of assay.
Test compounds supplied in DMSO were diluted into DMSO at 500 times the desired final concentrations before dilution into culture media to 2 times final concentrations. Equal volumes of 2× compounds were added to the cells in 96 well plates and incubated at 37° C. for 3 days.
After 3 days plates were equilibrated to room temperature and equal volume of CellTiter-Glow Reagent (Promega) was added to the culture wells. The plates were agitated briefly and luminescent signal was measured with luminometer. The percent inhibition of the signal seen in cells treated with DMSO alone vs. cells treated with control compound was calculated and used to determine EC50 values (i.e., the concentration of a test compound that is required to obtain 50% of the maximum effect in the cells) for tested compounds, as shown in Example 763.

[3] = target: Pim2 kinase (Homo sapiens, UniProt Q9P1W9); experiment: Pim2 ATP depletion assay; format: biochemical;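 further: Luciferase-based luminescent readout of ATP remaining after PIM2 phosphorylates a BAD peptide, final 5 nM enzyme, 4 µM ATP, 10 µM peptide, 2.5% DMSO, run to roughly half ATP consumption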
Sequence of Pim2 kinase (Q9P1W9 whole entry): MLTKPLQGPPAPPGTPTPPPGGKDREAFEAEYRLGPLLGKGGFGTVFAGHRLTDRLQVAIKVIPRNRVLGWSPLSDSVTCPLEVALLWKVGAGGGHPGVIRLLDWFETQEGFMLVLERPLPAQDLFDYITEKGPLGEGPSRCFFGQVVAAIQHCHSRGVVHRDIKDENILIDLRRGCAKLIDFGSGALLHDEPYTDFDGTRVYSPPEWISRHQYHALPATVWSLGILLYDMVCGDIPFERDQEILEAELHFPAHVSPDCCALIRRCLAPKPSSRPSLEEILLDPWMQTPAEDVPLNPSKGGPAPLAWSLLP

[4] = target: Pim3 kinase (Homo sapiens, UniProt Q86V86); experiment: Pim3 ATP depletion assay; format: biochemical

Sequence of Pim1 kinase (P11309 whole entry): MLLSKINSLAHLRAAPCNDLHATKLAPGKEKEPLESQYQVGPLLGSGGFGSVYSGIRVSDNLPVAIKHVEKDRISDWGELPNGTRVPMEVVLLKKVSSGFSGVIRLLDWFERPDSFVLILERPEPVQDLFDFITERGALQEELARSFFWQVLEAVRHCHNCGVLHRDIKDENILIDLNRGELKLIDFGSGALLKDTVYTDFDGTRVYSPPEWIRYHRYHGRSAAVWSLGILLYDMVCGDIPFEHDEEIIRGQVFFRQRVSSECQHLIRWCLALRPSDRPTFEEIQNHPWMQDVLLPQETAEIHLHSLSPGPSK

Row | Structure (SMILES) | IC50 ([1]; read-out: IC50 (μM) PIM1) | IC50 ([3]; read-out: IC50 (μM) PIM2) | IC50 ([4]; read-out: IC50 (μM) PIM3) | IC50 ([1]; read-out: PIM1 IC50) | IC50 ([3]; read-out: PIM2 IC50) | IC50 ([4]; read-out: PIM3 IC50) | EC50 ([2]; read-out: EC50 (μM) HEL 92.1.7) | EC50 ([2]; read-out: HEL 92.1.7 EC50)
1 | Cc1ccc(S(=O)(=O)N(C)C)cc1-c1ccc(N)c(C(=O)Nc2cnccc2N2CCC[C@H](N)C2)n1 [Example 330, 3-amino-6-(5-dimethyl-sulfamoyl-2-methyl-phenyl)-pyridine-2-carboxylic acid ((S)-3-amino-3,4,5,6-tetra-hydro-2H-[1,4′]bipyridinyl-3′-yl)-amide] | < 1 µM | < 1 µM | < 1 µM |  |  |  | > 10 µM | 
2 | Nc1ncc(-c2ccc(O)cc2)nc1C(=O)Nc1cnccc1N1CCCC(N)C1 (stereo not shown) [Example 358, 3-amino-6-(4-hydroxy-phenyl)-pyrazine-2-carboxylic acid (3-amino-3,4,5,6-tetra-hydro-2H-[1,4′]bipyridinyl-3′-yl)-amide] | < 1 µM | < 1 µM | < 1 µM |  |  |  | < 1 µM | 
3 | COC(=O)c1ccc(-c2ccc(N)c(C(=O)Nc3cnccc3N3CCC[C@H](N)C3)n2)c(F)c1 [Example 325, 4-[5-amino-6-((S)-3-amino-3,4,5,6-tetrahydro-2H-[1,4′]bi-pyridinyl-3′-ylcarbamoyl)-pyridin-2-yl]-3-fluoro-benzoic acid methyl ester] | < 1 µM | < 1 µM | < 1 µM |  |  |  | 1 to 5 µM | 
4 | Cc1ccccc1-c1cnc(N)c(C(=O)Nc2[nH]c(=O)ncc2N2CCCCC2)n1 [Example 591, 3-amino-6-o-tolyl-pyrazine-2-carboxylic acid (2-oxo-5-piperidin-1-yl-2,3-dihydro-pyrimidin-4-yl)-amide] |  |  |  | < 1 µM | < 1 µM | < 1 µM |  | 5 to 10 µM
5 | CCCNC(=O)c1ccc(F)c(-c2ccc(N)c(C(=O)Nc3cnccc3N3CCC[C@H](N)C3)n2)c1 [Example 326, 3-amino-6-(2-fluoro-5-propyl-carbamoyl-phenyl)-pyridine-2-carboxylic acid ((S)-3-amino-3,4,5,6-tetrahydro-2H-[1,4′]bipyridinyl-3′-yl)-amide] | < 1 µM | < 1 µM | < 1 µM |  |  |  | 1 to 5 µM | 
6 | Nc1ccc(-c2cccnc2F)nc1C(=O)Nc1cnccc1N1CCC[C@H](N)C1 [Example 419, 5-amino-2′-fluoro-[2,3′]bi-pyridinyl-6-carboxylic acid ((S)-3-amino-3,4,5,6-tetrahydro-2H-[1,4′]bipyridinyl-3′-yl)-amide] | < 1 µM | < 1 µM | < 1 µM |  |  |  | 1 to 5 µM | 
7 | COc1ncccc1-c1ccc(N)c(C(=O)Nc2cnccc2N2CCC[C@H](N)C2)n1 [Example 423, 5-amino-2′-methoxy-[2,3′]bi-pyridinyl-6-carboxylic acid ((S)-3-amino-3,4,5,6-tetrahydro-2H-[1,4′]bipyridinyl-3′-yl)-amide] | < 1 µM | < 1 µM | < 1 µM |  |  |  | 1 to 5 µM | 

Continued, in another order:

Row | IC50 ([1]; read-out: IC50 (μM) PIM1) | IC50 ([3]; read-out: IC50 (μM) PIM2) | IC50 ([4]; read-out: IC50 (μM) PIM3) | IC50 ([1]; read-out: PIM1 IC50) | IC50 ([3]; read-out: PIM2 IC50) | IC50 ([4]; read-out: PIM3 IC50) | Structure (SMILES) | EC50 ([2]; read-out: EC50 (μM) HEL 92.1.7) | EC50 ([2]; read-out: HEL 92.1.7 EC50)
8 | < 1 µM | < 1 µM | < 1 µM |  |  |  | COc1cccc(-c2ccc(N)c(C(=O)Nc3cnccc3N3CCC[C@H](N)C3)n2)n1 [Example 413, 5-amino-6′-methoxy-[2,2′]bi-pyridinyl-6-carboxylic acid ((S)-3-amino-3,4,5,6-tetrahydro-2H-[1,4′]bipyridinyl-3′-yl)-amide] | < 1 µM | 
9 | < 1 µM | < 1 µM | < 1 µM |  |  |  | Cc1ccc(S(=O)(=O)NC(C)(C)C)cc1-c1ccc(N)c(C(=O)Nc2cnccc2N2CCC[C@H](N)C2)n1 [Example 335, 3-amino-6-(5-tert-butyl-sulfamoyl-2-methyl-phenyl)-pyridine-2-carboxylic acid ((S)-3-amino-3,4,5,6-tetra-hydro-2H-[1,4′]bipyridinyl-3′-yl)-amide] | 5 to 10 µM | 
10 | < 1 µM | < 1 µM | < 1 µM |  |  |  | Nc1cc(-c2ccc(N)c(C(=O)Nc3cnccc3N3CCC[C@H](N)C3)n2)ccn1 [Example 412, 5,2′-diamino-[2,4′]bipyridinyl-6-carboxylic acid ((S)-3-amino-3,4,5,6-tetrahydro-2H-[1,4′]bi-pyridinyl-3′-yl)-amide] | 5 to 10 µM | 
